Target: MAP kinase-activated protein kinase 2 (Homo sapiens, UniProt P49137)
Assay: Not found
Protocol: Briefly, 10× stock solutions of MK2 (PV3317, from Life Technologies), 1.13X ATP (AS001A), and Sox conjugated peptide substrate, S/T3-Sox, (KZN1031) were prepared in 1× kinase reaction buffer consisting of 20 mM Tris, pH 7.5, 5 mM MgCl2, 1 mM EGTA, 5 mM β-glycerophosphate, 5% glycerol (10× stock, KB001A) and 0.2 mM DTT (DS001A). Enzyme solution (5 μL) was added to each of DMSO ([…]) or serially diluted test compounds prepared in DMSO in a Corning (#3574) 384-well, white, non-binding surface microtiter plate (Corning, NY). Kinase reactions were started with the addition of 45 μL of the ATP-peptide substrate S/T3-Sox mix and monitored every 71 seconds for 120 minutes at λex360/λem485 in a Synergy H4 plate reader from BioTek (Winooski, VT) at room temperature.

Sequence of MAP kinase-activated protein kinase 2 (P49137 whole entry): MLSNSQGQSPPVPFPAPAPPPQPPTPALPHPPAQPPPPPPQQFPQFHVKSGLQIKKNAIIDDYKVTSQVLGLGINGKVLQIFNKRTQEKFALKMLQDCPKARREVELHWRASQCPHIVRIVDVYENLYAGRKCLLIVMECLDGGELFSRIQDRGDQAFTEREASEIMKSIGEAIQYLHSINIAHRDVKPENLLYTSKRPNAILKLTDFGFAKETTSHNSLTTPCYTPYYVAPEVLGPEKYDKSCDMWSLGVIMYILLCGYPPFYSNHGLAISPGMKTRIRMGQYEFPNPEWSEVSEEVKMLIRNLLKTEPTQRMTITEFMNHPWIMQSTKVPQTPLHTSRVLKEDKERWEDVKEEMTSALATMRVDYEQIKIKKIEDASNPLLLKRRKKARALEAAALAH

Row | Structure (SMILES) | IC50 [nM]
1 | CCOCc1cnc(Cl)nc1-c1ccc2c(ccc3sc4c(c32)NC[C@@H](C)NC4=O)n1 [US20240190890, Compound I-3] | 107
2 | C=Cc1nc(-c2ccc3c(ccc4sc5c(c43)NC[C@@H](C)NC5=O)n2)cc(N2CCN(C)CC2)n1 [US20240190890, Compound I-18] | 4
3 | C=Cc1cc(-c2ccc3c(ccc4sc5c(c43)NC[C@@H](C)NC5=O)n2)cc(C=C)n1 [US20240190890, Compound I-80] | 574
4 | C=C(CN1CCOCC1)c1cc(-c2ccc3c(ccc4sc5c(c43)NC[C@@H](C)NC5=O)n2)ncn1 [US20240190890, Compound I-139] | 2
5 | C=Cc1cc(-c2ccc3c(ccc4sc5c(c43)NC[C@@H](C)NC5=O)n2)cc(N2CC(C)OC(C)C2)n1 (stereo not given in full) [US20240190890, Compound I-201] | 73

— BindingDB's records for patent US20240190890 (Bristol-Myers Squibb, 2024)
